{"source": "patent US20030229125A1", "about": "“Herbicidal substituted pyridines, their preparation, and their use as herbicides and plant growth regulators” (priority 2001, published 2003)", "key": {"[1]": {"tested_on": "Sinapis alba, Chrysanthemum segetum, Avena sativa, Stellaria media, Echinochloa crus-galli, Lolium multiflorum, Setaria spp., Abutilon theophrasti, Amaranthus …", "experiment": "Pre-emergence effect on weeds (greenhouse pot test, visual scoring)", "type": "in vivo, mono- and dicotyledonous weed plants", "details": "application rate of 1 kg or less of active substance per hectare; visually scored after 3 to 4 weeks vs untreated controls", "source_text": "Seeds or rhizome pieces of mono- and dicotyledonous weed plants were placed in sandy loam soil in plastic pots and covered with soil. The compounds according to the invention, formulated in the form of wettable powders or emulsion concentrates, were then applied to the soil cover in the form of aqueous suspensions or emulsions at an application rate of 600 to 800 l of water/ha (converted), in various dosages. After the treatment, the pots were placed in a greenhouse and kept under good growth conditions for the weeds. After the test plants had emerged, the damage to the plants or the negative effect on the emergence was visually scored after a test period of 3 to 4 weeks by comparison with untreated controls. As shown by the test results, the compounds according to the invention have good herbicidal pre-emergence activity against a broad spectrum of week grasses and broad-leaved weeds."}, "[2]": {"tested_on": "Sinapis alba, Echinochloa crus-galli, Lolium multiflorum, Chrysanthemum segetum, Setaria spp., Abutilon theophrastic, Amaranthus retroflexus, Panicum miliaceum …", "experiment": "Post-emergence effect on weeds (greenhouse pot test, visual scoring)", "type": "in vivo, mono- and dicotyledonous weeds", "details": "application rate of 1 kg or less of active substance per hectare; treated at three-leaf stage; scored visually after about 3 to 4 weeks", "method": "Seeds or rhizome pieces of mono- and dicotyledonous weeds were placed in sandy loam soil in plastic pots, covered with soil and grown in a greenhouse under good growth conditions. Three weeks after sowing, the test plants were treated at the three-leaf stage. The compounds according to the invention, formulated as wettable powders or emulsion concentrates, were sprayed, at various dosages, onto the green parts of the plants at an application rate of 600 to 800 l of water/ha (converted). After the test plants had remained in the greenhouse for about 3 to 4 weeks under optimum growth conditions, the effect of the preparations was scored visually by comparison with untreated controls. The agents according to the invention also have good herbicidal activity post-emergence against a broad spectrum of economically important weed grasses and broad-leaved weeds."}}}
{"smiles": "CCN(Cc1cccc(Oc2cc(C(F)(F)F)nn2C)n1)S(C)(=O)=O", "note": "[Example 4]", "values": [{"measurement": "herbicidal activity pre-emergence against weed plants", "setting": "[1]", "value": "very good herbicidal activity"}, {"measurement": "herbicidal activity post-emergence against weed plants", "setting": "[2]", "value": "very good herbicidal activity"}]}
